Read-outs that look alike come from different tables or passages of the source.
Columns and labels:
IMP-1 = IMP-1 (Serratia marcescens, UniProt P52699); assay: biochemical; assay type: biochemical
In short: (§1)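 Two-hour, 25° C incubation of enzyme with inhibitor and CCF2-FA (7-hydroxycoumarin–cephalosporin–fluorescein). Fluorescence read-out; IC50 via 4-parameter fit.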

NDM-1 = NDM-1 (Klebsiella pneumoniae, UniProt C7C422); assay: biochemical; assay type: biochemical; conditions: CCF2-FA substrate, 2 hours at 25° C; read-out: NDM-1 IC50
Sequence of NDM-1 (C7C422 whole entry, looked up, species assumed): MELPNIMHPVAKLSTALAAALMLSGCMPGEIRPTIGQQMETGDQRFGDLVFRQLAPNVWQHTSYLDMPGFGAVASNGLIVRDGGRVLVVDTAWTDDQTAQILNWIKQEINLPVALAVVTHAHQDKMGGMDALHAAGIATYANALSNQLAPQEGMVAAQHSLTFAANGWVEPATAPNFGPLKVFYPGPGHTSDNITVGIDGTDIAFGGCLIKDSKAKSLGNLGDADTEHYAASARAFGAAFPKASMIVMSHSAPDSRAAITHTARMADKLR
In short: as §1

VIM-1 = VIM-1 (Pseudomonas aeruginosa (strain ATCC 15692 / DSM 22644 / CIP 104116 / JCM 14847 / LMG 12228 / 1C / PRS 101 / PAO1), UniProt A0A0F7KYQ8); assay: biochemical; conditions: CCF2-FA substrate, 2 hours at 25° C
In short: as §1

[1] = system: Escherichia coli expressing NDM-1 (CLB30005, CLB30016); assay type: cell-based; conditions: with imipenem 1 μg/ml, 95% inhibition of bacterial growth; for Escherichia coli MITC95: NDM-1 (CLB30016)
In short: (§2)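 Colonies from overnight 35 °C blood-agar cultures were suspended in saline, diluted 1:100 into 1.1× CAMHB and exposed to test compound with or without imipenem at 1 μg/ml. After 22–24 h at 35 °C, absorbance was read to find the concentration restoring imipenem susceptibility.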

[2] = system: Klebsiella pneumoniae expressing VIM-1 (IHMA599644); assay type: cell-based; conditions: with imipenem 1 μg/ml, 95% inhibition of bacterial growth; for Klebsiella pneumoniae MITC95: VIM-1 (IHMA599644)
In short: as §2

[3] = system: Serratia marcescens expressing IMP-1 (CL5741); assay type: cell-based; conditions: with imipenem 1 μg/ml, 95% inhibition of bacterial growth; for Serratia marcescens MITC95: IMP-1 (CL5741)
In short: as §2

[4] = system: P. aeruginosa expressing IMP-1, efflux+ (MB9798); assay type: cell-based, Pseudomonas aeruginosa; conditions: for P. aeruginosa expressing IMP-1, efflux+ (MB9798) MITC95: imipenem at 2 μg/mL, in the presence of a class A, C, D serine β-lactamase inhibitor closely related to relebactam; for Efflux ratio: ratio MITC95 PA_9798/MITC95 PA_9799
Description: (§3) The strain background is Pseudomonas aeruginosa PAO1.

[5] = system: P. aeruginosa expressing IMP-1, efflux− (MB9799); assay: Efflux: concentration of MBL inhibitor which restores susceptibility to imipenem; assay type: cell-based, Pseudomonas aeruginosa; conditions: imipenem at 2 μg/mL, in the presence of a class A, C, D serine β-lactamase inhibitor closely related to relebactam
Description: as §3

[6] = CCF2-FA substrate, 2 hours at 25° C, read-out: IMP-1 IC50

Sequence of IMP-1 (P52699 whole entry, looked up, species assumed): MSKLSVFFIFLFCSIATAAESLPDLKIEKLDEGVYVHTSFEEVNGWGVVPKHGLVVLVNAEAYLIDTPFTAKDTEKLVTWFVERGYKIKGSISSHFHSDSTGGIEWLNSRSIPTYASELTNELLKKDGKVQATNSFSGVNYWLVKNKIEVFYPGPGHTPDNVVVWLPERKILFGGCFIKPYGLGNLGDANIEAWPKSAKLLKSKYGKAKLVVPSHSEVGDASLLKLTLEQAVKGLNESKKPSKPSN

SMILES	IC50 (IMP-1; [6]) [nM]	IC50 (NDM-1) [nM]	IC50 (VIM-1) [nM]	Escherichia coli expressing NDM-1 (CLB30016) MITC95 [1] [µM]	Klebsiella pneumoniae expressing VIM-1 (IHMA599644) MITC95 [2] [µM]	Serratia marcescens expressing IMP-1 (CL5741) MITC95 [3] [µM]	P. aeruginosa expressing IMP-1, efflux+ (MB9798) MITC95 [4] [µM]	Efflux ratio [4]	P. aeruginosa expressing IMP-1, efflux− (MB9799) MITC95 [5] [µM]	Escherichia coli MITC95 [1] [µM]	Klebsiella pneumoniae MITC95 [2] [µM]	Serratia marcescens MITC95 [3] [µM]	IC50 (IMP-1) [nM]
NS(=O)(=O)c1c(S(=O)(=O)C2CNC2)ccc(-c2ccc3cn[nH]c3c2)c1-c1nnn[nH]1.O=C(O)C(F)(F)F [Example 127, 3-((4-(1H-indazol-6-yl)-2-sulfamoyl-3-(1H-tetrazol-5-yl)phenyl)sulfonyl)azetidin-1-ium 2,2,2-trifluoroacetate]	3.01	0.429	0.428	0.7813	3.125	3.125	25	15.99	1.563				
NCCS(=O)(=O)c1ccc(-c2ccccc2N)c(-c2nn[nH]n2)c1S(N)(=O)=O [Example 339, 2′-Amino-4-((2-aminoethyl)sulfonyl)-2-(2H-tetrazol-5-yl)-[1,1′-biphenyl]-3-sulfonamide]	3.42	2.52	1.78				6.25	4.00	1.563	1.563	3.125	3.125	
NCCS(=O)(=O)c1ccc(-c2cccc3sc(C(=O)O)nc23)c(-c2nn[nH]n2)c1S(N)(=O)=O [Example 88, 4-(4-(2-aminoethylsulfonyl)-3-sulfamoyl-2-(2H-tetrazol-5-yl)phenyl)benzo[d]thiazole-2-carboxylic acid]	0.144	0.0522	0.158	1.563	12.5	6.25	6.25	2.00	3.125				
NCCS(=O)(=O)c1ccc(-c2cccc3sc(CN)nc23)c(-c2nn[nH]n2)c1S(N)(=O)=O [Example 87, 6-(2-aminoethylsulfonyl)-3-(2-(aminomethyl)benzo[d]thiazol-4-yl)-2-(2H-tetrazol-5-yl)benzenesulfonamide]	0.562	0.475	0.133	0.7813	0.7813	0.7813	0.7813	2.00	0.3906				
NC[C@H](O)CS(=O)(=O)c1ccc(-c2ccc(N)nc2)c(-c2nn[nH]n2)c1S(N)(=O)=O [Example 365, (S)-6-((3-amino-2-hydroxypropyl)sulfonyl)-3-(6-aminopyridin-3-yl)-2-(2H-tetrazol-5-yl) benzenesulfonamide]	1.21	1.53	0.632				1.172	1.50	0.7813	0.293	2.344	0.7813	
NS(=O)(=O)c1c(S(=O)(=O)C2CNC2)ccc(-c2cccc3sc(O)nc23)c1-c1nn[nH]n1 [Example 309, 6-(azetidin-3-ylsulfonyl)-3-(2-hydroxybenzo[d]thiazol-4-yl)-2-(2H-tetrazol-5-yl)benzenesulfonamide]	0.256	0.0885	0.145				3.125	2.00	1.563	0.7813	3.125	3.125	
NCCS(=O)(=O)c1ccc(-c2cccc3nc(N)oc23)c(-c2nn[nH]n2)c1S(N)(=O)=O [Example 74, 3-(2-aminobenzo[d]oxazol-7-yl)-6-(2-aminoethylsulfonyl)-2-(2H-tetrazol-5-yl)benzenesulfonamide]		0.096	0.172	0.7813	3.125	1.563	3.125	4.00	0.7813				0.989
C[C@@H](N)CS(=O)(=O)c1ccc(-c2cccc3[nH]c(C(=O)O)nc23)c(-c2nn[nH]n2)c1S(N)(=O)=O [Example 348, Ammonium (R)-4-(4-((2-aminopropyl)sulfonyl)-3-sulfamoyl-2-(2H-tetrazol-5-yl)phenyl)-1H-benzo[d]imidazole-2-carboxylate]	0.847	0.163	0.478				25	8.00	3.125	3.125	6.25	3.125	
NS(=O)(=O)c1c(S(=O)(=O)C2CNC2)ccc(-c2cnc3ccoc3c2)c1-c1nnn[nH]1.O=C(O)C(F)(F)F [Example 101, 3-((4-(furo[3,2-b]pyridin-6-yl)-2-sulfamoyl-3-(1H-tetrazol-5-yl)phenyl)sulfonyl)azetidin-1-ium 2,2,2-trifluoroacetate]	1.48	0.905	0.399	3.125	6.25	3.125	12.5	8.00	1.563				
Nc1nc2c(-c3ccc(S(=O)(=O)c4ccccc4)c(S(N)(=O)=O)c3-c3nnn[nH]3)cccc2s1 [Example 232, 3-(2-aminobenzo[d]thiazol-4-yl)-6-(phenylsulfonyl)-2-(1H-tetrazol-5-yl)benzenesulfonamide]	0.586	0.583	0.539	6.25	12.5	3.125	12.5	8.00	1.563				
NC(=O)N1CC(S(=O)(=O)c2ccc(-c3cccc4[nH]c(N)nc34)c(-c3nn[nH]n3)c2S(N)(=O)=O)C1 [Example 56, 3-(4-(2-amino-1H-benzo[d]imidazol-4-yl)-2-sulfamoyl-3-(2H-tetrazol-5-yl)phenylsulfonyl)azetidine-1-carboxamide]	2.82	0.18	0.35	6.25	6.25	3.125	3.125	1.00	3.125				
